# Laboratory results published in publication PMC546329, “SIRT1 Regulates HIV Transcription via Tat Deacetylation” (PLoS Biology, 2005).
# Molecular target: T1, SIRT1 (Homo sapiens, UniProt Q96EB6)
# T1 construct: FLAG-tagged SIRT1 immunoprecipitated from HEK 293 cells
# T1 sequence (Q96EB6 2-747): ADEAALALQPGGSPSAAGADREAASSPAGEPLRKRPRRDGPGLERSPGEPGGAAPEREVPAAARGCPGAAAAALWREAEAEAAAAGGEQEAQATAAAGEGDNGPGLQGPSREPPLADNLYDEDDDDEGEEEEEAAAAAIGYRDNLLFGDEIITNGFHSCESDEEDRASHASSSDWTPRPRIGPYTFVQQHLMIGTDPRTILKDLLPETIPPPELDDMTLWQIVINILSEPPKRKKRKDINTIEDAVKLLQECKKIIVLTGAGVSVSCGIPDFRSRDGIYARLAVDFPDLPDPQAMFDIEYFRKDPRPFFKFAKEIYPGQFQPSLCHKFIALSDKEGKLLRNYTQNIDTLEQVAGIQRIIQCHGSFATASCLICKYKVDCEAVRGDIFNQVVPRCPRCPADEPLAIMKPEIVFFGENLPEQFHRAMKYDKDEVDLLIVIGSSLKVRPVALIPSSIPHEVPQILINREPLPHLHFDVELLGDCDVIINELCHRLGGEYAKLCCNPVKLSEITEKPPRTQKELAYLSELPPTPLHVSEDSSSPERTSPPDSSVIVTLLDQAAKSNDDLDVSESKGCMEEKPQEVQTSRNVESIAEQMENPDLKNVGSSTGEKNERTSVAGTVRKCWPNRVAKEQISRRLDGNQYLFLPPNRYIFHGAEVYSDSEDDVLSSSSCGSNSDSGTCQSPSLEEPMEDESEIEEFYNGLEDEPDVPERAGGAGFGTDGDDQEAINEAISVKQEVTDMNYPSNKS
# Assay: deacetylation of synthetic acetylated Tat by immunoprecipitated SIRT1 with or without […] NAD+, Western blot
# Type: biochemical
compound,measurement,value
NC(=O)c1ccc[n+]([C@@H]2O[C@H](COP(=O)([O-])OP(=O)(O)OC[C@H]3O[C@@H](n4cnc5c(N)ncnc54)[C@H](O)[C@@H]3O)[C@@H](O)[C@H]2O)c1 [NAD^+],deacetylation of synthetic acetylated Tat by immunoprecipitated SIRT1 with or wi,The SIRT1-mediated deacetylation of Tat was dependent on NAD^+
